Data taken from US6909023B2, “Production method for benzenedimethanol compound” (Showa Denko K.K., priority 2000, dated 2005).

Test: solubility in water at room temperature

OCc1c(F)c(F)c(CO)c(F)c1F [2,3,5,6-tetrafluorobenzenedimethanol]
solubility in water: about 25 g/L
